Common to all, as to test: Large panel kinase profiling
Holding throughout (type): biochemical
Settings in all cases: 1 μM test article, 1 mM ATP

The target of one test is T1, PRKCI/PKCI (Homo sapiens, UniProt P41743).
T1 sequence (P41743 1-596): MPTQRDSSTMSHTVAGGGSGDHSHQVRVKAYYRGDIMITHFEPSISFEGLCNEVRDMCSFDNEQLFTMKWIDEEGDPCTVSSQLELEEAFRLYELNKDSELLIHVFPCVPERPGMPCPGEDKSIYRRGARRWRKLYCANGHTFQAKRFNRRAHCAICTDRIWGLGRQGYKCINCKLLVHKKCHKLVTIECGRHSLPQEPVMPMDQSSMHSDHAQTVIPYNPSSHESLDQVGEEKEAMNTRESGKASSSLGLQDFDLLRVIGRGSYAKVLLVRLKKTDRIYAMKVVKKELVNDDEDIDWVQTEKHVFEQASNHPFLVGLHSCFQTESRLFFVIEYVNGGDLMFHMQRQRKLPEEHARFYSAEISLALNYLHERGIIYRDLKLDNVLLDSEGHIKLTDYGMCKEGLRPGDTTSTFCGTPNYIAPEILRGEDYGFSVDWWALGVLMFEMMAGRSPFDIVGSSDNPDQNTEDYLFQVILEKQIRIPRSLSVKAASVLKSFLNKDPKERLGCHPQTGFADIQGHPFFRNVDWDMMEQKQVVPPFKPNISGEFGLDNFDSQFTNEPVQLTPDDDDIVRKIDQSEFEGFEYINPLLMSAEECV
In short, it runs like this:
(§1)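 One compound concentration (1 μM) was screened against each kinase at 1 mM ATP using PhosphoSens CSox-Sensor detection, at 30° C., with fluorescence read every 1 min (Ex 360 nm/Em 485 nm).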

The target of the next test is PRKAA1/AMPK111 (Homo sapiens, UniProt Q13131). In short, it runs like this: as §1
The target in the next test is T2, CDK18 (Homo sapiens, UniProt Q07002).
T2 construct: AssayQuant Technologies, Inc. (ran the panel)
In short, it runs like this: as §1

The next test addresses T3, CLK2 (Homo sapiens, UniProt P49760).
T3 construct: AssayQuant Technologies, Inc. (service laboratory)
In outline:
as §1

A further test addresses T4, SK3 (Homo sapiens, UniProt Q9Y2K2).
T4 construct: AssayQuant Technologies, Inc. (contract assay)
In short, it runs like this:
as §1

For a further test, the target named is T5, EPHB4 (Homo sapiens, UniProt P54760).
T5 sequence (P54760 16-987): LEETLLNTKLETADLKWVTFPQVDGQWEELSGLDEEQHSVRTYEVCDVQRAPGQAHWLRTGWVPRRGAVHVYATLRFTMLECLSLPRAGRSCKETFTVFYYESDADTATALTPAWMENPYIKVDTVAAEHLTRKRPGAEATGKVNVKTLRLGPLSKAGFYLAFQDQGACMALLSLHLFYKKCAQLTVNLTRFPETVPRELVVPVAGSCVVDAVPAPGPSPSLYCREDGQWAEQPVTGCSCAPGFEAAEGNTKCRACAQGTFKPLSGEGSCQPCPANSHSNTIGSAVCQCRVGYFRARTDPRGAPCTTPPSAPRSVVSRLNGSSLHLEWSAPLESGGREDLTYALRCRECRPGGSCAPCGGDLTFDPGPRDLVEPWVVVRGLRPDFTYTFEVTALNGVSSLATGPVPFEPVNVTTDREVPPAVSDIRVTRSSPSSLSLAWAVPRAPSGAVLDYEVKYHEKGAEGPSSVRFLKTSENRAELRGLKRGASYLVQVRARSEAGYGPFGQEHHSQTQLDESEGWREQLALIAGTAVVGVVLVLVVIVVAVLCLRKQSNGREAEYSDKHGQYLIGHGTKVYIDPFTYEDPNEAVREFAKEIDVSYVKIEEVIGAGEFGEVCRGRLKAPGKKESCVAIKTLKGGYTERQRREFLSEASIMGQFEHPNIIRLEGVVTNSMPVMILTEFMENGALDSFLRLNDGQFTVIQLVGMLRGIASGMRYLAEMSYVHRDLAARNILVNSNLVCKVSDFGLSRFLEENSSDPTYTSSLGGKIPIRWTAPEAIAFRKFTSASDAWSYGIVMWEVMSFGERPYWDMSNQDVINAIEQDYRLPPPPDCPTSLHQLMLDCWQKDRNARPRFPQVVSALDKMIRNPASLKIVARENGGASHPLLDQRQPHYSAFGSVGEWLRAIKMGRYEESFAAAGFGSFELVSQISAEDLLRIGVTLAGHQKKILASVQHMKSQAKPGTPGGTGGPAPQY
In outline:
as §1

The target in a further test is T6, CSNK1A1/CK1A1 (Homo sapiens, UniProt P48729).
T6 construct: AssayQuant Technologies, Inc. (service laboratory)
In short, it runs like this: as §1

The target of the next test is T7, CSNK1D/CK1D (Homo sapiens, UniProt P48730).
T7 construct: AssayQuant Technologies, Inc. (service laboratory)
In outline: as §1

A further test concerns the target T8, CHEK1/CHK1 (Homo sapiens, UniProt O14757).
T8 construct: AssayQuant Technologies, Inc. (ran the panel)
T8 sequence (O14757 1-476): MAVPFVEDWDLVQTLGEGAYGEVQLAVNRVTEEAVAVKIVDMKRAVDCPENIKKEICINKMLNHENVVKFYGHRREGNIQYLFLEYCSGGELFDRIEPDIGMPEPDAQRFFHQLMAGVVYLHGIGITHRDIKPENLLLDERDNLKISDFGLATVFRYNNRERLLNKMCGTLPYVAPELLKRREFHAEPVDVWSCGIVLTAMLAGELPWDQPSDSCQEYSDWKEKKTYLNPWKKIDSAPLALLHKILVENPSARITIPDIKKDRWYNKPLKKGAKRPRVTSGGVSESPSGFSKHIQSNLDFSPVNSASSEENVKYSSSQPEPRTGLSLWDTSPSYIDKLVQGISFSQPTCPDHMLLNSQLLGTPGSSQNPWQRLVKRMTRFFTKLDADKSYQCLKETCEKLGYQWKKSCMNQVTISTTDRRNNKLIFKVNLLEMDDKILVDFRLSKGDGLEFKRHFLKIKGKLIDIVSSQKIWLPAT
In short, it runs like this:
as §1

The target in a further test is ERN2 (Homo sapiens, UniProt Q76MJ5). In short, it runs like this:
as §1

As usually defined, the inhibition is the relative decrease from the control value, in per cent.

T7 sequence (P48730 whole entry): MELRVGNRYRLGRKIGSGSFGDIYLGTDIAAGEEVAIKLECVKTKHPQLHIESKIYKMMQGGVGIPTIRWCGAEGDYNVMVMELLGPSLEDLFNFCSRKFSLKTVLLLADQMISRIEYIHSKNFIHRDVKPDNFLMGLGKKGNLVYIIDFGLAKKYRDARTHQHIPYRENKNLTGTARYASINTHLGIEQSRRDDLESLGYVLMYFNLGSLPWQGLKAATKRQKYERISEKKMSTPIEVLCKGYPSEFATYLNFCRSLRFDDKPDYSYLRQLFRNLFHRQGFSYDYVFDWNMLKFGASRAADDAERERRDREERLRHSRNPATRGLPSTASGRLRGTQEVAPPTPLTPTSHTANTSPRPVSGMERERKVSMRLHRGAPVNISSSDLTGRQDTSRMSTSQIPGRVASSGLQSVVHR
PRKAA1/AMPK111, sequence (Q13131 whole entry, species assumed): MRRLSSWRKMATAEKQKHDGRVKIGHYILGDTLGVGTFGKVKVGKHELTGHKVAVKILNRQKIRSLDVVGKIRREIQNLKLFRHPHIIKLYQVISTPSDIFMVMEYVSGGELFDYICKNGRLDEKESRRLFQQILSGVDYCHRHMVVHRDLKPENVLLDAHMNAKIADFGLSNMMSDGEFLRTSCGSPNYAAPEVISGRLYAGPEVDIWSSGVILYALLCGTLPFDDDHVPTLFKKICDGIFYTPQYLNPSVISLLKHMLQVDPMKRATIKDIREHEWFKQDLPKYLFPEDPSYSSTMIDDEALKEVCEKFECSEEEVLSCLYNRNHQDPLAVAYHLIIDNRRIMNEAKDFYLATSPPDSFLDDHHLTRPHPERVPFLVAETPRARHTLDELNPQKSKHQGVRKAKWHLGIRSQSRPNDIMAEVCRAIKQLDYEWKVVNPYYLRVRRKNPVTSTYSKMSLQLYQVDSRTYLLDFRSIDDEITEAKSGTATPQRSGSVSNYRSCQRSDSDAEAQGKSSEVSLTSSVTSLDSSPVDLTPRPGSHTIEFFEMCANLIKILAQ
PRKAA1/AMPK111, sequence (Q9Y478 whole entry partner, species assumed): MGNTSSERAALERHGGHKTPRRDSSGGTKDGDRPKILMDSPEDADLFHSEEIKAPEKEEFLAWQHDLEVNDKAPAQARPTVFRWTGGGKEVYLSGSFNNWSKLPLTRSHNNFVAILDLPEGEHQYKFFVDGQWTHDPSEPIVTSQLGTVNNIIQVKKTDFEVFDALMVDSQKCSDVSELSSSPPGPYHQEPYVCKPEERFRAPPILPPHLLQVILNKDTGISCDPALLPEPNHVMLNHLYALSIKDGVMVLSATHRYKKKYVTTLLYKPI
PRKAA1/AMPK111, sequence (P54619 whole entry partner, species assumed): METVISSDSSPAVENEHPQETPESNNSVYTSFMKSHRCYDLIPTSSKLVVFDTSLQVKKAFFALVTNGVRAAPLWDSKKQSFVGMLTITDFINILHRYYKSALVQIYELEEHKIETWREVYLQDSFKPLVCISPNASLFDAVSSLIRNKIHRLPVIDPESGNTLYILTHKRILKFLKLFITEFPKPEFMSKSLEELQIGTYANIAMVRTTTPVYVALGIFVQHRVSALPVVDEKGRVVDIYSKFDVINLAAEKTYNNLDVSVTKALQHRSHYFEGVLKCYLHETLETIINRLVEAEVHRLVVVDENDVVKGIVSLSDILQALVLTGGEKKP
T3 sequence (P49760 whole entry, species assumed): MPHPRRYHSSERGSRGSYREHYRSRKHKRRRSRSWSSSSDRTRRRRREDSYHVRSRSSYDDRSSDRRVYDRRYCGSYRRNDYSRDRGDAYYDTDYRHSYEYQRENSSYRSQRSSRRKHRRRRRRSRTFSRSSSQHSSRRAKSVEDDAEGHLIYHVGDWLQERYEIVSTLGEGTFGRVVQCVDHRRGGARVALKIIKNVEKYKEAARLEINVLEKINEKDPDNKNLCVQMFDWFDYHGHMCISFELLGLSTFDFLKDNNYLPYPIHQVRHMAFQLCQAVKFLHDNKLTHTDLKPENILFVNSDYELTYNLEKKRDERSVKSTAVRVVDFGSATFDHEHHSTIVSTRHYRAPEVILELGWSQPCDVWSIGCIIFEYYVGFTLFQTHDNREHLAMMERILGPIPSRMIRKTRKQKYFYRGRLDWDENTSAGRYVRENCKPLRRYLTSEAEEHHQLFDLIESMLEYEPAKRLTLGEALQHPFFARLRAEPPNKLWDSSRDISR
T6 sequence (P48729 whole entry): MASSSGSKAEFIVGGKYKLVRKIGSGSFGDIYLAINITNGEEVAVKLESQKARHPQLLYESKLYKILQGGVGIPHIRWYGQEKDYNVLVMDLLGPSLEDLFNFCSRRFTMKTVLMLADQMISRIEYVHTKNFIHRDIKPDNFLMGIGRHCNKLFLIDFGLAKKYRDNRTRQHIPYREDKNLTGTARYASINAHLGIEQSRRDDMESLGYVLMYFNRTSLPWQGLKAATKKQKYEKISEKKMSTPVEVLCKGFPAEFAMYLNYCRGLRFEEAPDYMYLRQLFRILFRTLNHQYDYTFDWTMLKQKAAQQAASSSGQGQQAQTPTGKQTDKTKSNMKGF
T2 sequence (Q07002 whole entry, species assumed): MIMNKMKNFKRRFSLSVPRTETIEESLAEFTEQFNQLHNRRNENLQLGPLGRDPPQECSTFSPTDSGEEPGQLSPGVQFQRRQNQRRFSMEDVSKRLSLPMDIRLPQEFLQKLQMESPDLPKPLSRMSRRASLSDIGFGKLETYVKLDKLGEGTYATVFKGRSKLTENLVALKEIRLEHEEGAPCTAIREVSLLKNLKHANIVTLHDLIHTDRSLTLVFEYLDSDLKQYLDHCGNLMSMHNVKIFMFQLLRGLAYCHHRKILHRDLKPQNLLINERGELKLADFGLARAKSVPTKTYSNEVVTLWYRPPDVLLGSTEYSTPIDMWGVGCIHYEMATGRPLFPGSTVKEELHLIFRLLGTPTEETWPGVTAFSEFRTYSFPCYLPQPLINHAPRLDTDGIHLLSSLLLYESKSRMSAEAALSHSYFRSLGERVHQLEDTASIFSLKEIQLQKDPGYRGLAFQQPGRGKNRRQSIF
T2 sequence (Q8ND76 whole entry partner, species assumed): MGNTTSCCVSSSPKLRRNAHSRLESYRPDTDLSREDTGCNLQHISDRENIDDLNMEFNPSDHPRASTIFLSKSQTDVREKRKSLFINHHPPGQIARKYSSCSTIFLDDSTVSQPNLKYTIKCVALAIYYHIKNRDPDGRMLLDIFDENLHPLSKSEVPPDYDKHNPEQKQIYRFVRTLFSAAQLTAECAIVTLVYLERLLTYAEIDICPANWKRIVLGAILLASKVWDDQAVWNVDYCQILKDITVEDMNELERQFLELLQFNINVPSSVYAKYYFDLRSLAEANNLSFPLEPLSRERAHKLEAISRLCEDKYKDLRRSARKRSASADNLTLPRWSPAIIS
ERN2, sequence (Q76MJ5 35-926, species assumed): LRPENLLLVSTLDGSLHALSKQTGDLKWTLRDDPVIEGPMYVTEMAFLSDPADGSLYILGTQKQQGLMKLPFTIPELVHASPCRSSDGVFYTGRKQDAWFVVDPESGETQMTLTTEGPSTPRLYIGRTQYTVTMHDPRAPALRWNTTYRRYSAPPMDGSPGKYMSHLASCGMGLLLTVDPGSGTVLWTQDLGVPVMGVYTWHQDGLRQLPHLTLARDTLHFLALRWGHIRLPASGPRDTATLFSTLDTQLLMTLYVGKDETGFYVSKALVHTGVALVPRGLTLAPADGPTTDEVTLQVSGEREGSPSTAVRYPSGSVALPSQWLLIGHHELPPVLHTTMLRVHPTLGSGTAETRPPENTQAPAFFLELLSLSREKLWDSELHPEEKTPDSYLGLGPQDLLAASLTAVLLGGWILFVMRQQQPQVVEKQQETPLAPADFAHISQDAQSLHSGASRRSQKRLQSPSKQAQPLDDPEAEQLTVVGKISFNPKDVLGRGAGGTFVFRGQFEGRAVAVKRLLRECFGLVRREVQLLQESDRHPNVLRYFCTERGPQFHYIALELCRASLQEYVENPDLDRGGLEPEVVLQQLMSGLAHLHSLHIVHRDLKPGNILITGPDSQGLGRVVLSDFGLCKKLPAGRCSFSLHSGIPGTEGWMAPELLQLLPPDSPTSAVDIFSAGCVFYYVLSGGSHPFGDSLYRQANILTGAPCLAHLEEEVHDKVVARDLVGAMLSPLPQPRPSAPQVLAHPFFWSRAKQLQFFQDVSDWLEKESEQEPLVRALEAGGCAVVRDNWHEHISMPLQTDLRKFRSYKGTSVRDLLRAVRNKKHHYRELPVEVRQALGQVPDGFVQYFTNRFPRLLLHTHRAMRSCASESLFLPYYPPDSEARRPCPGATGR

For `C=CC(=O)N1CCCC(c2c(F)cc(C(N)=O)c3[nH]c4c(c23)CCCCC4)C1` (single isomer, unassigned) [Compound 5-6], the inhibition at 1 µM is -0.6% against PRKCI/PKCI; -13.5% on PRKAA1/AMPK111; 19% against CDK18; 0.7% against CLK2; 5.3% at SK3; 7% against EPHB4. Moreover, the inhibition at 1 µM at CSNK1A1/CK1A1 is 9.6%; against CSNK1D/CK1D, 4.2%; at CHEK1/CHK1, -34.8%; at ERN2 it was -8%.
Turning to `C=CC(=O)N1CCC[C@@H](c2c(F)cc(C(N)=O)c3[nH]c4c(c23)CC2(CC4)CC2)C1` [Compound 6-2, (S)-5-(1-acryloylpiperidin-3-yl)-6-fluoro-1,2,4,9-tetrahydrospiro[carbazole-3,1′-cyclopropane]-8-carboxamide], the inhibition at 1 µM is 9% against PRKCI/PKCI; 13.2% at PRKAA1/AMPK111; -15% on CDK18; -4.6% against CLK2; 14.7% at SK3; 7.4% at EPHB4. Further, the inhibition at 1 µM was 11.2% against CSNK1A1/CK1A1, 11.7% on CSNK1D/CK1D, -23.1% against CHEK1/CHK1 and -14.6% against ERN2.
Take `C=CC(=O)N1CCC[C@@H](c2c(F)cc(C(N)=O)c3[nH]c4c(c23)CCC4)C1` [Compound 10-2, (S)-8-(1-acryloylpiperidin-3-yl)-7-fluoro-1,2,3,4-tetrahydrocyclo-penta[b]indole-5-carboxamide]: the inhibition at 1 µM against PRKCI/PKCI is -3.3%; at PRKAA1/AMPK111, 2.2%; on CDK18, 2%; against CLK2, -3.2%; against SK3, 11.6%; against EPHB4, -8.5%. For the same compound, the inhibition at 1 µM against CSNK1A1/CK1A1 was -2.8%; at CSNK1D/CK1D it was 16.5%; at CHEK1/CHK1, 6.8%; at ERN2, -7.1%.

The record behind these values is patent publication US20220009920A1 (GB005, Inc., priority 2020, published 2022).
